Source: patent US20260166016A1, “GPR139 RECEPTOR AGONIST, PREPARATION METHOD THEREFOR, AND APPLICATION THEREOF” (NEUBO APPTECH CO., LTD., priority 2022, published 2026)

Tests used:
GPR139 = biological target: T1, GPR139 (Homo sapiens, UniProt Q6DWJ6); experiment: GPR139 FLIPR cell calcium signal detection in GPR139-transfected HEK293 cells; format: cell-based; details: HEK293 cells transfected with GPR139, read-out: EC50 values of compounds for GPR139
T1 construct: expressed in transfected cells; host or cells: HEK293
T1 sequence (Q6DWJ6 1-353): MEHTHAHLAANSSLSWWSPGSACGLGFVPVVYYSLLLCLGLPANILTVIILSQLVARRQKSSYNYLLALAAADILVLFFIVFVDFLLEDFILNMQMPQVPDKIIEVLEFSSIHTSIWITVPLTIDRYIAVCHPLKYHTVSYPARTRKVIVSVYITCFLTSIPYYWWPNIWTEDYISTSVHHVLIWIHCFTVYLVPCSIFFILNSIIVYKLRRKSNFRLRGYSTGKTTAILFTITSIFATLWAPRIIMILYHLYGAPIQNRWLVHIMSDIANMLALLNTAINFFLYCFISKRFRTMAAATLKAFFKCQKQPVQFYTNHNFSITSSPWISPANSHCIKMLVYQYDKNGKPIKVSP
Protocol: HEK293 cells were grown in a 10 cm culture dish containing DMEM complete medium (containing glutamine, sodium pyruvate, penicillin/streptomycin, 10% fetal bovine serum) and incubated at 37° C. in a 5% CO2 incubator until 90% confluency. Then subculture twice a week at a ratio of 1:5. During cell passaging, the culture medium was first completely removed, washed once with 4 mL of DPBS, and then 3 mL of trypsin digestion solution was added and mixed well. When cell dissociation was observed, the trypsin solution was aspirated and 5 mL of complete DMEM medium was added. The cells were dispersed by pipetting, and 1 mL of cell suspension was added to each of five new 10 cm culture dishes. Then, 7 mL of complete DMEM medium was supplemented to each dish. After mixing, the cells were cultured at 37° C. in a 5% CO2 incubator.
On the transfection day, cells were digested and seeded into one 10 cm culture dish at appropriate density. 6 mL of DMEM/F12 medium (containing glutamine, sodium pyruvate, HEPES, and fetal bovine serum) was added, and the cells were cultured for 5 hours at 37° C. in 5% CO2. A 50 mL sterile centrifuge tube (Tube A) was taken, and 1 mL of serum-free DMEM/F12 medium (containing glutamine, sodium pyruvate, and HEPES) was added, followed by 10 μg of GPR139 DNA. The mixture was mixed well. Another 50 mL sterile centrifuge tube (Tube B) was taken, and 1 mL of serum-free DMEM medium (containing glutamine, sodium pyruvate, and HEPES) was added, followed by 60 μL of Fugene HD transfection reagent. The mixture was mixed well. 1 mL of Fugene HD transfection reagent from Tube B was transferred to Tube A, mixed well, and incubated at room temperature for 20 minutes. 2 mL of DMEM/F12 medium (containing glutamine, sodium pyruvate, HEPES, and fetal bovine serum) was added to Tube A. After mixing, 4 mL of mixture from Tube A was transferred to the prepared 10 cm dish (total volume 10 mL). The cells were cultured for 20-24 hours at 37° C. in 5% CO2.
The next day, the transfected cells were digested with trypsin digestion solution, and appropriate DMEM/F12 medium (containing glutamine, sodium pyruvate, HEPES, penicillin/streptomycin, fetal bovine serum) was added. The cells were seeded into Matrigel coated 384-well plates with a cell density of 6.67×10^6 cells/mL, 30 μL/well. The 384-well plates were cultured at 37° C. in 5% CO2.
On the third day, 10 μL/well of FLIPR dye (diluted in HEPES solution containing Pluronic and Probenecid) was added to the 384-well cell plate. And the plate was incubated for 40 minutes at 37° C. in 5% CO2. Diluted compounds were added to the cell plate and calcium signals were measured using a FLIPR plate reader.
Data were analyzed using XL-fit software to obtain EC50 values for each compound.

[1] = tested on: metabolic enzymes of pentobarbital sodium; experiment: LC-MS detection of pentobarbital sodium content in anesthetized mice (pilot experiment); format: in vivo, mouse; details: pentobarbital sodium content in mice by LC-MS, placebo vs compound
From the text: In addition, to determine whether compound NRB181 has an effect on the metabolic enzymes of pentobarbital sodium, we used LC-MS method to detect the pentobarbital sodium content in mice anesthetized with pentobarbital sodium under placebo and compound action in the pilot experiment.

mice in Forced Swim Test = experiment: Mouse Forced Swim Test; format: in vivo; details: male CD1 (ICR) mice; i.p. 2.5 mg/mL solution at 0.1 mL/10 g; test 10 minutes after injection; FIG. 3
Protocol: Mouse strain: Male Crl: CD1 (ICR) mice; Weight: 35-40 g; Quantity: 16 pieces
Group 1, placebo group: 8 mice, 4 mice per cage;
Group 2, NRB181 group: 8 mice, 4 mice per cage.
20.3.1 Preparation of placebo before experiment: 10% DMSO+saline.
20.3.2 Preparation of compound NRB181 before experiment: 10 mg of NRB181 was weighed and added to 4 mL of placebo, mixed well.
20.3.4 On the morning of the experimental day, all mice were weighed and then evenly divided into each group based on their weight, with 8 mice per group, for a total of 16 mice.
20.3.5 The mice were transferred to the behavioral laboratory and allowed to adapt for 3 hours.
20.3.6 Drug injection: mice of Group 1 received intraperitoneal injection of placebo at a dose of 0.1 mL/10 g; after Forced Swim Test of the mice in Group 1, mice in Group 2 were intraperitoneally injected with compound NRB181 at a dose of 0.1 mL/10 g.
Mice of Group 1 underwent Forced Swim Test in sequence 10 minutes after injection. The mice were placed in a glass jar (diameter 10 cm, height 25 cm; water depth 15 cm, water temperature 23° C.) and swam for 6 minutes. The first 2 minutes were the adaptation period, and the last 4 minutes were the experimental period; The software records the immobility time, swimming time, and climbing time of mice within 4 minutes. […]

C[C@H](NC(=O)CNC(=O)c1cc(Cl)ccn1)c1c(F)cccc1F [NRB181]
EC50 (GPR139): 0.1 to 100 nM
effect on the metabolic enzymes of pentobarbital sodium [1]: no effect
time of despair (immobility time) in Forced Swim Test (mice in Forced Swim Test): significantly reduce
